In patent EP4663204A1, “COMPOUNDS USEFUL FOR THE MODULATION OF THE ACTIVITY OF STING” (Sulis Therapeutics ApS, priority 2024, dated 2025):
“And” between values parts separate entries of the source, which are not always exact repeats. Identical values can stand only once. “Also recorded” adds a separate entry of the source.

Legend:
Format in all cases: cell-based
Set-up in all cases: To assess STING degradation and recovery in human foreskin fibroblasts HFF-1 cells; host or cells: HFF-1 human foreskin fibroblasts
STING [1] = biological target: T1, STING (Homo sapiens, UniProt Q86WV6); test: Western Blot of diABZI-induced STING activation in HFF-1 cells (Figure 10A); details: 5 µM for 15 min, then 300 nM diABZI for 2 h or 5 h, versus diABZI c3 alone
T1 sequence (Q86WV6 whole entry, the tested form may be a part): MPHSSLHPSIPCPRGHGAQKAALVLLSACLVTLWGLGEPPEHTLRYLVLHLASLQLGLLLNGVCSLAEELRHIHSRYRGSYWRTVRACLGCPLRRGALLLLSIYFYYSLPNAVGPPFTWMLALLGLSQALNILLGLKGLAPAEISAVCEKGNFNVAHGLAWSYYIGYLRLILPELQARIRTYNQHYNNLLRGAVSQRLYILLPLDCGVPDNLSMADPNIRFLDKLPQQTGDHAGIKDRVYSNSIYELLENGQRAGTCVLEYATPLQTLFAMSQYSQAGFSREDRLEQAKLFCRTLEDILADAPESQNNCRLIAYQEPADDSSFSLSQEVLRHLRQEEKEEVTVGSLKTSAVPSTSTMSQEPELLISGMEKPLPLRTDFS
Protocol: (§1) To assess whether S1 STING ligands inhibit STING activation, primary human skin fibroblasts (Figure 9) or HFF-1 cells (Figure 10) were treated with various compounds which comprise only an S1 ligand domain and a Linker domain before undergoing Western Blot analysis as described below.
(§2) Cell culture methods as described above for primary human skin fibroblast and HFF-1 cells were used in the current experiments. Methods as described above for H596, H1650 and HaCat cells were applied for cell lysis and western blotting.
In Figure 10A, HFF-1 cells were treated with 5 µM of compounds A11, A25, A26, or A30, or 0.5 µM STING antagonist control for 15 min followed prior to addition of 300 nM diABZI and incubation for 2 h or 5 h. The cells were lysed and analysed on WB. As additional controls, cells were left untreated (UT), treated with Lipofectamine (Lipo control) or with compounds A26 or A30 as single agent. […]

STING [2] = biological target: T1, STING; test: Western Blot of cGAMP-induced STING activation in HFF-1 cells (Figure 10B); details: 5 µM for 15 min, then 8 µg/mL cGAMP for 2 h or 5 h, versus cGAMP alone
Protocol: as §1, §2
(§3) In Figure 10B, similar experiments were performed as for Figure 10A, except that cells were activated with 8 µg/mL cGAMP instead of diABZI c3. In addition, the controls used in this set of experiments was A11, A25, A26 and A30 as a single agent with no cGAMP activation.

STING [3] = biological target: T1, STING; test: Western Blot of STING agonist activity of compounds as single agent in HFF-1 cells; details: compound as single agent, no activation
Protocol: S1 is a STING ligand. […] Any standard method known in the art may be used to determine STING agonist activity. For example, STING agonist activity (or lack thereof) can be measured as described in Examples 11 and/or Example 12. For example, following the method described in Example 11, cells may be incubated with a compound comprising a S1 STING ligand. The cells may be lysed and Western Blotting performed. Western blots may be probed for phospho-STING and/or phospho-TBK1. Cells incubated with STING ligands which are not agonists will not result in detectable phospho-STING or phospho-TBK1 using the methods outlined above and in Examples 11. In another example, following the method described in Example 12, human skin fibroblasts may be pretreated for 2hours with a serial dilution of a test compounds, for example a compound comprising an S1 ligand, prior to stimulation with a STING agonist (e.g. 300 nM GSK STING agonist). Supernatants may then be harvested after STING agonist stimulation (e.g. after 20 h stimulation). IFN-a/b may be measured in the supernatants using HEK-Blue IFN-α/β bioassay (Invivogen) to determine a half-maximal inhibitory concentration of a test compound.
as §1, §2
In Figure 10A, HFF-1 cells were treated with 5 µM of compounds A11, A25, A26, or A30, or 0.5 µM STING antagonist control for 15 min followed prior to addition of 300 nM diABZI and incubation for 2 h or 5 h. The cells were lysed and analysed on WB. As additional controls, cells were left untreated (UT), treated with Lipofectamine (Lipo control) or with compounds A26 or A30 as single agent. The WB membrane was probed for p-STING, STING, p-IRF3, p-TBK1, and Vinculin.
as §3

STING [4] = biological target: T1, STING; test: Inhibition of STING-agonist-induced IFN-β and CXCL10 release (Figure 11); details: for IFN media concentration: Figure 11A; for CXCL10 media concentration: Figure 11B; for secretion of Functional Type I IFN / secretion of CXCL10: human skin fibroblasts, 5 µM, 0.3 µM diABZI; for secretion of Functional Type I IFN: Figure 11 (A); for secretion of CXCL10: Figure 11 (B)
Protocol: HFF-1 cells were assessed for inhibition of STING-agonist-induced IFN-β and CXCL10 release in cells treated with Compounds A9 and A11.
HFF-1 cells were cultured as described in Example 7 above except that cells were seeded in a 24-well plate at 30,000 cells/well. […]

STING [5] = biological target: T1, STING; test: Western Blot of diABZI-induced STING activation in primary human skin fibroblasts (Figure 9); details: 5 µM; for LC3B lipidation / P-TBK1: 0.3 µM diABZI; for P-TBK1 / P-STING: versus diABZI c3 only; for P-STING: before (-2h, -1h), simultaneously with, or 15 minutes after 0.3 µM diABZI
Protocol: as §1, §2
Cells were incubated with A9 or A11 for 1 or 2 hours before addition of diABZI c3, treated with test compound and diABZI c3 simultaneously, or treated with A9 or A11 after 15 minutes incubation with diABZI c3. As a control, cells were also treated with diABZI c3 alone.

[6] = 5 µM compound 1 to 2 hours before, simultaneously with, or 15 minutes after 0.3 µM diABZI c3

| Compound | STING, TBK1 and IRF3 phosphorylation (STING [1]) | STING, TBK1 and IRF1 phosphorylation (STING [2]) | phosphorylation of STING, IRF1 or TBK1 (STING [3]) | IFN media concentration (STING [4]; [6]) | CXCL10 media concentration (STING [4]; 5 µM compound before, simultaneously with, or after diABZI c3, filled bars) [pg/mL] | secretion of Functional Type I IFN (STING [4]) | secretion of CXCL10 (STING [4]) | LC3B lipidation (STING [5]) | P-TBK1 (STING [5]) | P-STING (STING [5]) | CXCL10 media concentration (STING [4]; cells treated with diABZI c3 alone) | IFN media concentration (STING [4]; cells treated with only diABZI c3) |
| --- | --- | --- | --- | --- | --- | --- | --- | --- | --- | --- | --- | --- |
| CCn1nc(C)cc1C(=O)N=c1n(C)c2cc(C(N)=O)ccc2n1CCC(CCn1c(=NC(=O)c2cc(C)nn2CC)n(C)c2cc(C(N)=O)ccc21)OCC(=O)N1CCOC[C@@H]1c1ccccc1 (stereo partly drawn) [A30, 1-(3-{2-[(S)-3-Phenyl-4-morpholinyl]-2-oxoethoxy}-5-{5-carbamoyl-2-[(1-ethyl-3-methyl-5-pyrazolyl)carbonylimino]-3-methyl-2,3-dihydro-1H-1,3-benzimidazol-1-yl}pentyl)-2-[(1-ethyl-3-methyl-5-pyrazolyl)carbonylimino]-3-methyl-2,3-dihydro-1H-1,3-benzimidazole-5-carboxamide] | lower; also recorded: inhibited STING, IRF3 and TBK1 phosphorylation and activation | lower; also recorded: inhibited STING, IRF3 and TBK1 phosphorylation and activation | do not induce STING, IRF3 or TBK1 phosphorylation and activation alone |  |  |  |  |  |  |  |  |  |
| CCn1nc(C)cc1C(=O)N=c1n(C)c2cc(C(N)=O)ccc2n1CCC(CCn1c(=NC(=O)c2cc(C)nn2CC)n(C)c2cc(C(N)=O)ccc21)OCC(=O)N1CCC[C@H]1c1cccc(OC)c1 (stereo partly drawn) [A11, 1-(3-{2-[(S)-2-(3-Methoxyphenyl)-1-pyrrolidinyl]-2-oxoethoxy}-5-{5-carbamoyl-2-[(1-ethyl-3-methyl-5-pyrazolyl)carbonylimino]-3-methyl-2,3-dihydro-1H-1,3-benzimidazol-1-yl}pentyl)-2-[(1-ethyl-3-methyl-5-pyrazolyl)carbonylimino]-3-methyl-2,3-dihydro-1H-1,3-benzimidazole-5-carboxamide] | lower; also recorded: inhibited STING, IRF3 and TBK1 phosphorylation and activation | lower; also recorded: inhibited STING, IRF3 and TBK1 phosphorylation and activation | do not induce STING, IRF3 or TBK1 phosphorylation and activation alone | -10 - 20 U/mL | -10 to 20 | inhibits secretion | inhibits secretion | reduced LC3B lipidation | reduced P-TBK1 intensity | reduced intensity; also recorded: decrease in P-STING |  |  |
| CCn1nc(C)cc1C(=O)N=c1n(C)c2cc(C(N)=O)ccc2n1CCC(CCn1c(=NC(=O)c2cc(C)nn2CC)n(C)c2cc(C(N)=O)ccc21)OCC(=O)N1CCC[C@H]1c1ccccc1 (stereo partly drawn) [A25, 1-(3-{2-[(S)-2-Phenyl-1-pyrrolidinyl]-2-oxoethoxy}-5-{5-carbamoyl-2-[(1-ethyl-3-methyl-5-pyrazolyl)carbonylimino]-3-methyl-2,3-dihydro-1H-1,3-benzimidazol-1-yl}pentyl)-2-[(1-ethyl-3-methyl-5-pyrazolyl)carbonylimino]-3-methyl-2,3-dihydro-1H-1,3-benzimidazole-5-carboxamide] | lower | lower | do not induce STING, IRF3 or TBK1 phosphorylation and activation alone |  |  |  |  |  |  |  |  |  |
| CCn1nc(C)cc1C(=O)Nc1nc2cc(C(N)=O)cc(OC)c2n1C/C=C/Cn1c(NC(=O)c2cc(C)nn2CC)nc2cc(C(N)=O)cc(OCCCN3CCOCC3)c21 [diABZI c3, reference compound] |  |  |  |  |  |  |  |  |  |  | ~ 60 pg/mL | ~ 200 U/mL and ~ 100 U/mL |
| CCn1nc(C)cc1C(=O)N=c1n(C)c2cc(C(N)=O)ccc2n1CCC(CCn1c(=NC(=O)c2cc(C)nn2CC)n(C)c2cc(C(N)=O)ccc21)OCC(=O)N1CCc2cc(OC)ccc2C1 (stereo not drawn) [A9, 1-(5-{5-Carbamoyl-2-[(1-ethyl-3-methyl-5-pyrazolyl)carbonylimino]-3-methyl-2,3-dihydro-1H-1,3-benzimidazol-1-yl}-3-[2-(6-methoxy-1,2,3,4-tetrahydro-2-isoquinolyl)-2-oxoethoxy]pentyl)-2-[(1-ethyl-3-methyl-5-pyrazolyl)carbonylimino]-3-methyl-2,3-dihydro-1H-1 ,3-benzimidazole-5-carboxamide] |  |  |  | ~ 100 U/mL |  | inhibits secretion | inhibits secretion | reduced LC3B lipidation; also recorded: decrease in LC3B lipidation | reduced P-TBK1 intensity | reduced intensity; also recorded: decrease in P-STING |  |  |
| CCn1nc(C)cc1C(=O)N=c1n(C)c2cc(C(N)=O)ccc2n1CCC(CCn1c(=NC(=O)c2cc(C)nn2CC)n(C)c2cc(C(N)=O)ccc21)OCC(=O)N1CCC[C@H]1C(=O)N1CCc2cc(OC)ccc2C1 (stereo partly drawn) [A26, 1-[3-(2-{(S)-2-[(6-Methoxy-1,2,3,4-tetrahydro-2-isoquinolyl)carbonyl]-1-pyrrolidinyl}-2-oxoethoxy)-5-{5-carbamoyl-2-[(1-ethyl-3-methyl-5-pyrazolyl)carbonylimino]-3-methyl-2,3-dihydro-1H-1,3-benzimidazol-1-yl}pentyl]-2-[(1-ethyl-3-methyl-5-pyrazolyl)carbonylimino]-3-methyl-2,3-dihydro-1H-1,3-benzimidazole-5-carboxamide] | lower; also recorded: inhibited STING, IRF3 and TBK1 phosphorylation and activation | lower; also recorded: inhibited STING, IRF3 and TBK1 phosphorylation and activation | do not induce STING, IRF3 or TBK1 phosphorylation and activation alone |  |  |  |  |  |  |  |  |  |
